Several values for one entry are separate records, joined by “and”; a condition that tells them apart may be missing. Equal entries are not always repeated.
Settings: acidic group

Row | Structure (SMILES) | pKa
1 | CCOC(=O)COc1ccc(C(=O)c2ccc(O)c(C[NH3+])c2)cc1 | 7.34
2 | CCCCCCCCCCCCCCC(=O)O | 5.01
3 | NC(=O)c1ccncc1 | 10.5
4 | NC(=S)c1ccc(Br)cc1 | 12.5
5 | CCC(C)(C)C(=O)O | 5.03
6 | CC(C)C1CC(CC(=O)O)[NH2+]C1C(=O)[O-] (configuration not stated) | 4
7 | CCCCc1c(C)nn(-c2ccccc2)c1O | 11.4
8 | CSC1=NC(C)(C)C(O)=N1 | 9.48
9 | CC(=O)[n+]1cccc(C#N)c1 | 1.62
10 | [O-]c1cc(O)c2ccccc2[nH+]1 | 5.86
11 | O=c1ccc(Br)ccc1O | 6.32
12 | Fc1cccc(NC(=S)c2ccc(Cl)cc2)c1 | 10.2
13 | CC(=O)c1cc(C(=O)c2ccccc2)n[nH]1 | 9.01
14 | O=[N+]([O-])c1cc(-c2ccccc2)ccc1O | 6.73
15 | Cc1c([N+](=O)[O-])cc(Cl)c2nnn(O)c12 | 3.17
16 | O/N=C1\CCCc2nonc21 | 8.78
17 | CC(C)CC(=O)CC(=O)C(F)(F)F | 6.52
18 | CC1(C)[C@H]2CC[C@@]1(C)[C@@H](O)[C@@H]2C(=O)O | 2.74
19 | Cc1ccc2[nH]nnc2c1 | 8.9
20 | Nc1nc2c(ncn2[C@@H]2C=C[C@H](CO)C2)c(O)[nH+]1 | 3.15

Row | Structure (SMILES) | pKa
21 | CSc1cccc(O)c1 | 9.47
22 | CCCCCCc1c(-c2ccccc2)nn(-c2ccccc2)c1O | 7.4
23 | CCCCCCP(=O)(O)CCCCCC | 3.24
24 | S=C(/N=N/c1ccc2ccccc2c1)NNc1ccc2ccccc2c1 | 12.7
25 | Cc1nn(-c2ccccc2)c(O)c1C(C)C | 11.6
26 | C[Si](C)(C)C#CC(=O)O | 2.21
27 | Cc1cccc(OC(O)(CBr)c2ccccc2)c1 (configuration not stated) | 11.2
28 | C[N+](C)(C)CCc1ccc(O)cc1 | 9.8
29 | S=CNc1ccc(Cl)cc1 | 10.8
30 | C[n+]1nc(O)ccc1[O-] | 5.65
31 | Nc1ccc(S(=O)(=O)Nc2ncccc2O)cc1 | 7.6
32 | CCc1cc(Cl)c(O)c(C(=O)NC[C@H]2CCC[NH+]2CC)c1OC | 6.91
33 | Cc1cc(C)c(C)c(C(=O)O)c1C | 3.43
34 | Cc1ccc(O)c(=O)cc1 | 7.32
35 | NS(=O)(=O)c1cccc(C(F)(F)F)c1 | 8.98
36 | O=NCC(=O)c1cccnc1 | 7.8
37 | O=C(O)C12CC3CC(CC(C3)C1)C2 | 4.95
38 | Cc1ccc(C(=S)Nc2ccc(Cl)c(Cl)c2)cc1 | 10.2
39 | O=[N+]([O-])c1cccc(O)c1[O-] | 11.5
40 | [NH3+]CC(=O)NCC(=O)NCC(=O)N1CCC[C@H]1C(=O)O | 2.91

Row | Structure (SMILES) | pKa
41 | CCN(CC)Cc1cc(C)ccc1O | 10.8
42 | [NH3+]c1cccc(O[C@H]2O[C@@H](C(=O)O)[C@H](O)[C@@H](O)[C@@H]2O)c1 | 2.97
43 | CCN(CC)Cc1cc(F)ccc1O | 10.8
44 | COc1ccc(/C=N/O)cc1OC | 10.8
45 | O=C(O)c1csc([N+](=O)[O-])c1 | 3.24
46 | Oc1cnoc1 | 7.75
47 | O=C(O)c1cccc([N+](=O)[O-])c1O | 2.16
48 | COC(=O)C1=C(C(=O)OC)CC=C1 | 5
49 | O=[N+]([O-])c1cccc(/C=N/O)c1 | 10.2
50 | CN1C(=S)NC(=O)C12CCCCC2 | 9.25
51 | Cc1cc(O)nn1-c1ccccc1C(=O)[O-] | 12.2
52 | N#C/C(=N\O)C(N)=O | 5.12
53 | O=C1COC=C([O-])C1=O | 10.5
54 | Cc1cc(/N=N/c2ccc(S(N)(=O)=O)cc2)cc(C(=O)[O-])c1O | 10.2
55 | Nc1ccc(S(=O)(=O)Nc2ccc(S(N)(=O)=O)cc2)cc1 | 7.85
56 | CC(C)=NNS(C)(=O)=O | 8.5
57 | [NH3+]CCC#CC#CCCC(=O)O | 4.12
58 | O/N=C(/Cl)c1ccccc1 | 9.8
59 | NC(=S)Nc1ccc(Cl)cc1 | 12.3

Same assay, conditions: basic group

Row | Structure (SMILES) | pKa
60 | [NH3+][C@@H](Cc1c[nH]cn1)C(=O)NCC(=O)[O-] | 5.8
61 | O=Cc1cc(-c2ccccc2)nnc1NCC[NH+]1CCOCC1 | 2.6
62 | NC(=O)c1ccncc1 | 3.57
63 | COc1ccc(-c2cn3ccnc3[nH]2)c(OC)c1 | 6.76
64 | Nc1ccc(N)cc1 | 6.16
65 | C=Cc1ccncc1 | 5.62
66 | CCN(CC)c1nc(N)nc(N)n1 | 5.61
67 | N#Cc1ccc(N)cc1 | 1.74
68 | Cc1cc(N)ccc1C[NH3+] | 4.26
69 | CCN1CC1 | 7.91
70 | OCCN1CCNCC1 | 9.33
71 | CCN(CC)CCBr | 7
72 | C#CCN(C)C | 7.05
73 | CCCCCCCCN(CC(C)O)CC(C)O (configuration not stated) | 8.3
74 | Nc1ccc2[nH]c[nH+]c2c1 | 3.07
75 | c1ccc(NCCN2CCCCC2)cc1 | 9.2
76 | N[C@@H]1CCCC[C@@H]1[NH3+] | 6.35
77 | CN1C[C@H](C(=O)[O-])C[C@@]2(O)c3cccc4[nH]cc(c34)C[C@H]12 | 9.17
78 | N[C@H]1CCCC[C@@H]1C(=O)[O-] | 10.1
79 | CNc1ccccc1C | 4.59
80 | CSc1ccc(N)c(I)c1 | 2.45

Row | Structure (SMILES) | pKa
81 | Nc1ccc(C=O)cc1 | 1.74
82 | Nc1cccnn1 | 5.19
83 | OCCc1cccnc1 | 5.38
84 | C=Cc1c(C)c2cc3[nH+]c(c(CC(=O)OC)c4[nH]c(cc5nc(cc1[nH]2)C(C)=C5CC)c(C)c4C(=O)NCC)[C@@H](CCC(=O)OC)[C@@H]3C | 0
85 | C[C@@H](N)C(=O)N1CCC[C@H]1C(=O)[O-] | 8.38
86 | Nc1ccc2c(c1)Cc1c(F)cccc1-2 | 3.54
87 | COc1cccc([O-])n1 | 9.77
88 | CCOCCNc1ccc(C)cc1 | 4.6
89 | [O-]c1ccnc2ccccc12 | 11.2
90 | CNCC(C)C[NH2+]C | 8.29
91 | Nc1cc(/C=C/c2ccccc2)nc2ccccc12 | 9.3
92 | COc1cc(S(C)=O)ccc1-c1nc2ncccc2[nH]1 (configuration not stated) | 3.91 and 3.89
93 | CCN(CC)CCNc1nc(C)cc(N)n1 | 9.8
94 | CN(C)c1nc2c(s1)CCCC2 | 6.16
95 | CC1CNCc2ccccc2OCCOc2ccccc2C[NH2+]1 (configuration not stated) | 6.01
96 | CN(C)CC(Cl)CCl (configuration not stated) | 7.5
97 | Cc1cc([N+](=O)[O-])cc(C)c1N | 0.98
98 | CC(=O)n1cnc2ccccc21 | 1.8
99 | Cc1ccccc1/N=C/N(C)C | 8.27
100 | Nc1ccncc1Br | 7.15
101 | c1c[nH]c(P(c2ncc[nH]2)c2ncc[nH]2)n1 | 7.44

Row | Structure (SMILES) | pKa
102 | C(CNCCc1nnn[n-]1)NCCc1nnn[n-]1 | 9.33
103 | NCc1ccc(C=O)o1 | 8.1
104 | Nc1nc(N)c2ccccc2n1 | 8.12
105 | Oc1ccccc1CN1CCCCC1 | 8.6
106 | CCc1cc(/N=N/c2ccc(N(C)C)cc2)ccc1C | 2.59
107 | CC[Si](C)(C)CN | 10.7
108 | CCCN(C)N(C)CCC | 7.05
109 | c1ccc(C2NCCS2)cc1 (configuration not stated) | 5.2
110 | CCN(CC)Cc1cc(C)ccc1O | 8.94
111 | C[Si](C)(CNC1CCCCC1)O[Si](C)(C)CNC1CCCCC1 | 10.1
112 | c1c[nH]c(P(c2ncc[nH]2)c2[nH]cc[nH+]2)n1 | 6.59
113 | CC1CN(C)CC[NH+]1C (configuration not stated) | 3.93
114 | Cc1[nH]c(C)c(C)c1C | 3.77
115 | c1ccc(CNc2nccs2)cc1 | 5.15
116 | CC(=O)C1(c2cccc(O)c2)CCN(C)CC1 | 8.61
117 | CN(C)c1ccc(C(O)(c2ccccc2)c2ccc(N(C)C)cc2)cc1 | 6.93
118 | CCC1CN1CC (configuration not stated) | 8.19
119 | CCCn1nnnc1N | 1.8
120 | c1cnc2ccc3ncccc3c2c1 | 4
121 | Cc1cscn1 | 3.14
122 | Cc1ccccc1/C(N)=N/O | 4.03

Source: the pKa sets of Baltruschat and Czodrowski (2020)
